In PubChem BioAssay AID1919003 (Molecular Pharmacology Branch, DTP, NCI, 2023):

System: 786-0 complex spheroids with HUVEC/MSC, growth % test/control
Test: Anticancer human tumor 786-0 cell line growth inhibition [AhR];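 further: compound exposure lasted seven days before the read-out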
Conditions: for IC50: curve of first compound; for viability, T/C: stronger effect = lower value
Summary of the method: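 Agents were dosed in half-log steps down from roughly clinical Cmax, or from 10 microM where Cmax was unknown, alone and with AhR antagonists. Read-out: percent test/control growth of tumor spheroids containing HUVEC and MSC stromal cells.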

[1] = second compound 0.1 µM, first compound 0.0316 µM
[2] = second compound 0.1 µM, first compound 0.1 µM
[3] = second compound 0.1 µM, first compound 0.316 µM
[4] = second compound 0.1 µM, first compound 1 µM
[5] = second compound 0.1 µM, first compound 3.16 µM
[6] = second compound 0.1 µM, first compound 10 µM
[7] = second compound 0.316 µM, first compound 0.0316 µM
[8] = second compound 0.316 µM, first compound 0.1 µM
[9] = second compound 0.316 µM, first compound 0.316 µM
[10] = second compound 0.316 µM, first compound 1 µM
[11] = second compound 0.316 µM, first compound 3.16 µM
[12] = second compound 0.316 µM, first compound 10 µM
[13] = second compound 1 µM, first compound 0.0316 µM
[14] = second compound 1 µM, first compound 0.1 µM
[15] = second compound 1 µM, first compound 0.316 µM
[16] = second compound 1 µM, first compound 1 µM
[17] = second compound 1 µM, first compound 3.16 µM
[18] = second compound 1 µM, first compound 10 µM
[19] = second compound 3.16 µM, first compound 0.0316 µM
[20] = second compound 3.16 µM, first compound 0.1 µM
[21] = second compound 3.16 µM, first compound 0.316 µM
[22] = second compound 3.16 µM, first compound 1 µM
[23] = second compound 3.16 µM, first compound 3.16 µM
[24] = second compound 3.16 µM, first compound 10 µM
[25] = second compound 10 µM, first compound 0.0316 µM
[26] = second compound 10 µM, first compound 0.1 µM
[27] = second compound 10 µM, first compound 0.316 µM
[28] = second compound 10 µM, first compound 1 µM
[29] = second compound 10 µM, first compound 3.16 µM
[30] = second compound 10 µM, first compound 10 µM
[31] = second compound 0.1 µM, first compound 0.00316 µM
[32] = second compound 0.1 µM, first compound 0.01 µM
[33] = second compound 0.316 µM, first compound 0.00316 µM
[34] = second compound 0.316 µM, first compound 0.01 µM
[35] = second compound 1 µM, first compound 0.00316 µM
[36] = second compound 1 µM, first compound 0.01 µM
[37] = second compound 3.16 µM, first compound 0.00316 µM
[38] = second compound 3.16 µM, first compound 0.01 µM
[39] = second compound 10 µM, first compound 0.00316 µM
[40] = second compound 10 µM, first compound 0.01 µM

Row | SMILES | IC50 (second compound 0.1 µM) [nM] | IC50 (second compound 0.316 µM) [nM] | IC50 (second compound 1 µM) [nM] | IC50 (second compound 3.16 µM) [nM] | IC50 (second compound 10 µM) [nM] | viability, T/C [1] [%] | viability, T/C [2] [%] | viability, T/C [3] [%] | viability, T/C [4] [%] | viability, T/C [7] [%] | viability, T/C [8] [%] | viability, T/C [9] [%] | viability, T/C [10] [%] | viability, T/C [13] [%] | viability, T/C [14] [%] | viability, T/C [15] [%] | viability, T/C [19] [%] | viability, T/C [20] [%] | viability, T/C [25] [%] | viability, T/C [26] [%] | also measured
1 | CC(C)c1c(-c2ccccc2)nc2c(C#N)c[nH]n2c1=O + Cc1ccccc1N=Nc1ccc(NC(=O)c2ccnn2C)c(C)c1 | > 10000 | > 10000 | > 10000 | > 10000 | > 10000 | 93.9 | 99.9 | 99.5 | 101 | 90.1 | 93.4 | 97.1 | 95.5 | 94.6 | 92.8 | 114 | 86.8 | 85.3 | 86.6 | 83.9 | viability, T/C [5]: 92.1%; viability, T/C [6]: 99%; viability, T/C [11]: 92.6%; viability, T/C [12]: 95.2%; viability, T/C [16]: 98.6%; viability, T/C [17]: 96.3%; viability, T/C [18]: 88.9%; viability, T/C [21]: 89.6%; viability, T/C [22]: 82.8%; viability, T/C [23]: 85%; viability, T/C [24]: 84.2%; viability, T/C [27]: 84.5%; viability, T/C [28]: 82.4%; viability, T/C [29]: 83.1%; viability, T/C [30]: 79.5%
2 | CC[C@@]1(O)C(=O)OCc2c1cc1n(c2=O)Cc2cc3c(CN(C)C)c(O)ccc3nc2-1 + Cc1cncc(-c2nc(NCCc3c[nH]c4ccccc34)c3ncn(C(C)C)c3n2)c1 | 61.6 | 64.2 | 56.1 | 28.1 | < 0.316 | 91.1 | 20.1 |  |  | 99 | 19.2 |  |  | 83.5 | 16 |  | 46.5 | 9.39 | 1.61 | 0.53 | viability, T/C (second compound 0.1 µM, first compound 0.000316 µM): 116%; viability, T/C (second compound 0.1 µM, first compound 0.001 µM): 118%; viability, T/C [31]: 117%; viability, T/C [32]: 115%; viability, T/C (second compound 0.316 µM, first compound 0.000316 µM): 113%; viability, T/C (second compound 0.316 µM, first compound 0.001 µM): 107%; viability, T/C [33]: 119%; viability, T/C [34]: 112%; viability, T/C (second compound 1 µM, first compound 0.000316 µM): 109%; viability, T/C (second compound 1 µM, first compound 0.001 µM): 109%; viability, T/C [35]: 103%; viability, T/C [36]: 108%; viability, T/C (second compound 3.16 µM, first compound 0.000316 µM): 73.4%; viability, T/C (second compound 3.16 µM, first compound 0.001 µM): 78.5%; viability, T/C [37]: 88.8%; viability, T/C [38]: 83%; viability, T/C (second compound 10 µM, first compound 0.000316 µM): 15.5%; viability, T/C (second compound 10 µM, first compound 0.001 µM): 11%; viability, T/C [39]: 11.8%; viability, T/C [40]: 4.85%
3 | COc1cc(C2c3cc4c(cc3C(OC3OC5COC(C)OC5C(O)C3O)C3COC(=O)C23)OCO4)cc(OC)c1O (stereo not given) + Cc1cncc(-c2nc(NCCc3c[nH]c4ccccc34)c3ncn(C(C)C)c3n2)c1 | 1150 | 1290 | 1320 | 444 | < 31.6 | 114 | 127 | 87 | 49.9 | 128 | 121 | 86.8 | 52.9 | 107 | 117 | 85.2 | 81.3 | 79.1 | 6.55 | 4.82 | viability, T/C [5]: 35.5%; viability, T/C [6]: 9.86%; viability, T/C [11]: 33.4%; viability, T/C [12]: 7.71%; viability, T/C [16]: 53.3%; viability, T/C [17]: 32.3%; viability, T/C [18]: 4.59%; viability, T/C [21]: 56.2%; viability, T/C [22]: 30.5%; viability, T/C [23]: 15.8%; viability, T/C [24]: 2.3%; viability, T/C [27]: 1.24%; viability, T/C [28]: 0.35%; viability, T/C [29]: 0.49%; viability, T/C [30]: 0.43%
4 | COc1cccc2c1C(=O)c1c(O)c3c(c(O)c1C2=O)CC(O)(C(=O)CO)CC3OC1CC(N)C(O)C(C)O1 (stereo not given) + Cc1cncc(-c2nc(NCCc3c[nH]c4ccccc34)c3ncn(C(C)C)c3n2)c1 | 158 | 145 | 133 | < 31.6 | < 31.6 | 82.8 | 63.1 | 30.3 | 8.19 | 90 | 61.4 | 25.7 | 7.63 | 62.5 | 60.2 | 21.3 | 39.4 | 25.2 | 1.2 | 0.79 | viability, T/C [5]: 0.99%; viability, T/C [6]: 0.52%; viability, T/C [11]: 0.45%; viability, T/C [12]: 0.37%; viability, T/C [16]: 5.04%; viability, T/C [17]: 0.27%; viability, T/C [18]: 0.34%; viability, T/C [21]: 7.66%; viability, T/C [22]: 2.14%; viability, T/C [23]: 0.12%; viability, T/C [24]: 0.3%; viability, T/C [27]: 1.52%; viability, T/C [28]: 0.23%; viability, T/C [29]: 0.21%; viability, T/C [30]: 1.26%
5 | Nc1ccn(C2OC(CO)C(O)C2(F)F)c(=O)n1 (stereo not given) + Cc1cncc(-c2nc(NCCc3c[nH]c4ccccc34)c3ncn(C(C)C)c3n2)c1 | < 31.6 | < 31.6 | < 31.6 | < 31.6 | < 31.6 | 6.61 | 6.32 | 4.8 | 5.2 | 7.89 | 7.93 | 6.11 | 6.04 | 6.44 | 6.22 | 6.31 | 2.07 | 1.87 | 0.4 | 0.29 | viability, T/C [5]: 8.48%; viability, T/C [6]: 7.97%; viability, T/C [11]: 7.74%; viability, T/C [12]: 6.69%; viability, T/C [16]: 5.01%; viability, T/C [17]: 6.11%; viability, T/C [18]: 5.37%; viability, T/C [21]: 3.18%; viability, T/C [22]: 1.68%; viability, T/C [23]: 3.27%; viability, T/C [24]: 7.69%; viability, T/C [27]: 0.24%; viability, T/C [28]: 0.33%; viability, T/C [29]: 0.61%; viability, T/C [30]: 0.37%
6 | Nc1ncn(C2CC(O)C(CO)O2)c(=O)n1 (stereo not given) + Cc1cncc(-c2nc(NCCc3c[nH]c4ccccc34)c3ncn(C(C)C)c3n2)c1 | > 1000 | > 1000 | > 1000 | > 1000 | < 3.16 | 118 | 115 | 106 | 95.8 | 117 | 127 | 113 | 103 | 123 | 112 | 99 | 78.5 | 90.4 | 11.1 | 9.3 | viability, T/C [31]: 123%; viability, T/C [32]: 115%; viability, T/C [33]: 116%; viability, T/C [34]: 128%; viability, T/C [35]: 124%; viability, T/C [36]: 116%; viability, T/C [16]: 96.9%; viability, T/C [37]: 77.5%; viability, T/C [38]: 80.4%; viability, T/C [21]: 85.4%; viability, T/C [22]: 76.2%; viability, T/C [39]: 8.18%; viability, T/C [40]: 13.5%; viability, T/C [27]: 8.63%; viability, T/C [28]: 10.9%
